Test results as given in US8513260B2, “Pyrazinylpyrazoles” (Bayer CropScience AG, priority 2009, dated 2013).

System: not listed separately
Assay: logP by HPLC on reversed-phase columns (C 18), EEC Directive 79/831 Annex V.A8
Format: physicochemical
Conditions: reversed-phase C18 HPLC column, pH 2.3, ** acidic range pH 2.3, 0.1% aqueous phosphoric acid and acetonitrile; read-out: log P
Excerpt: [table] The calibration is effected with unbranched alkan-2-ones (having 3 to 16 carbon atoms) with known logP values (logP values determined on the basis of the retention times by linear interpolation between two successive alkanones).

Compound	chromatographic logP
CCOc1nccnc1-n1nc(C(F)(F)F)c(-c2ccc(Br)cc2)c1N [Ex. 5]	3.6

Same assay, conditions: reversed-phase C18 HPLC column, pH 2.7, * LC-MS, acidic range pH 2.7, 0.1% aqueous formic acid and acetonitrile; read-out: log P

Compound	chromatographic logP
COc1nccnc1-n1nc(C(F)(F)F)c(-c2cc(Br)cc(Br)c2)c1N [Ex. 22]	4.1
COc1cc(-c2c(C(F)(F)C(F)(F)F)nn(-c3nccnc3OC)c2N)cc(Cl)c1OC [Ex. 51]	3.8

System: unfed adult fleas (Ctenocephalides felis)
Assay: Ctenocephalides felis test (CTECFE)
Format: in vivo
Conditions: Ctenocephalides felis, 48 h; 100 ppm in citrated cow's blood; after 2 days; read-out: efficacy (kill)
Method: Ctenocephalides felis Test ([…]) Solvent: 1 part by weight of dimethyl sulphoxide For the purpose of preparing an appropriate active ingredient formulation, 10 mg of active ingredient are mixed with 0.5 ml of dimethyl sulphoxide. A portion of the concentrate is diluted with citrated cow's blood and the desired concentration is established. About 20 unfed adult fleas (Ctenocephalides felis) are introduced into a chamber closed at the top and bottom with gauze. A metal cylinder, the bottom of which is closed with Parafilm, is placed onto the chamber. The cylinder contains the blood/active ingredient preparation, which can be imbibed by the fleas through the Parafilm membrane. After 2 days, the kill in % is determined. 100% means that all fleas have been killed; 0% means that none of the fleas have been killed.

Compound	pest or weed control at 100 ppm
COc1nccnc1-n1nc(C(F)(F)F)c(-c2cc(Br)cc(Br)c2)c1N [Ex. 22]	95%
COc1cc(-c2c(C(F)(F)C(F)(F)F)nn(-c3nccnc3OC)c2N)cc(Cl)c1OC [Ex. 51]	100%

System: green peach aphid (Myzus persicae)
Assay: Myzus test (MYZUPE spray treatment)
Format: in vivo
Conditions: Myzus persicae, 144 h, Chinese cabbage discs, after 6 days, read-out: efficacy
Method: Myzus Test (MYZUPE Spray Treatment) Solvent: 78 parts by weight of acetone • • 1.5 parts by weight of dimethylformamide Emulsifier: 0.5 part by weight of alkylaryl polyglycol ether To prepare an appropriate active ingredient preparation, 1 part by weight of active ingredient is mixed with the stated amounts of solvent and emulsifier, and the concentrate is diluted with emulsifier-containing water to the desired concentration. Discs of Chinese cabbage (Brassica pekinensis) infested by all stages of the green peach aphid (Myzus persicae) are sprayed with an active ingredient preparation of the desired concentration. After 6 days, the efficacy in % is determined. 100% means that all of the aphids have been destroyed; 0% means that none of the aphids have been destroyed.

Compound	pest or weed control at 500 g/ha
COc1nccnc1-n1nc(C(F)(F)F)c(-c2cc(Br)cc(Br)c2)c1N [Ex. 22]	100%

System: Lucilia cuprina larvae
Assay: Lucilia cuprina test (LUCICU)
Format: in vivo
Conditions: 48 h, treated horse meat, after 2 days, read-out: efficacy (kill)
Method: (§1) Lucilia cuprina Test (LUCICU) Solvent: dimethyl sulphoxide To prepare an appropriate active ingredient formulation, 10 mg of active ingredient are mixed with 0.5 ml of dimethyl sulphoxide and the concentrate is diluted with water to the desired concentration. Vessels containing horse meat treated with the active ingredient preparation of the desired concentration are populated with about 20 Lucilia cuprina larvae. After 2 days, the kill in % is determined. 100% means that all of the larvae have been killed; 0% means that none of the larvae have been killed.

Compound	pest or weed control at 100 ppm
CCOc1nccnc1-n1nc(C(F)(F)F)c(-c2ccc(Br)cc2)c1N [Ex. 5]	100%
COc1nccnc1-n1nc(C(F)(F)F)c(-c2cc(Br)cc(Br)c2)c1N [Ex. 22]	100%
COc1cc(-c2c(C(F)(F)C(F)(F)F)nn(-c3nccnc3OC)c2N)cc(Cl)c1OC [Ex. 51]	100%

System: red spider mite (Tetranychus urticae)
Assay: Tetranychus test, OP-resistant (TETRUR spray treatment)
Format: in vivo
Conditions: Tetranychus urticae, foliar, 144 h, 500 g/ha, bean leaf discs, after 6 days, read-out: efficacy
Method: Tetranychus Test, OP-Resistant (TETRUR Spray Treatment)
Solvent: 78.0 parts by weight of acetone • • 1.5 parts by weight of dimethylformamide
Emulsifier: 0.5 part by weight of alkylaryl polyglycol ether
To prepare an appropriate active ingredient preparation, 1 part by weight of active ingredient is mixed with the stated amounts of solvent and emulsifier, and the concentrate is diluted with emulsifier-containing water to the desired concentration. Discs of bean leaves (Phaseolus vulgaris) infested by all stages of the red spider mite (Tetranychus urticae) are sprayed with an active ingredient preparation of the desired concentration. After 6 days, the efficacy in % is determined. 100% means that all spider mites have been killed; 0% means that none of the spider mites have been killed.

Compound	pest or weed control at 500 g/ha
CCOc1nccnc1-n1nc(C(F)(F)F)c(-c2ccc(Br)cc2)c1N [Ex. 5]	80%
COc1nccnc1-n1nc(C(F)(F)F)c(-c2cc(Br)cc(Br)c2)c1N [Ex. 22]	100%
COc1cc(-c2c(C(F)(F)C(F)(F)F)nn(-c3nccnc3OC)c2N)cc(Cl)c1OC [Ex. 51]	80%

System: larvae of the mustard beetle (Phaedon cochleariae)
Assay: Phaedon test (PHAECO spray treatment)
Format: in vivo
Conditions: Phaedon cochleariae, 168 h, Chinese cabbage discs, after 7 days, read-out: efficacy
Method: Phaedon Test ([…] Spray Treatment) Solvent: 78.0 parts by weight of acetone • • 1.5 parts by weight of dimethylformamide Emulsifier: 0.5 part by weight of alkylaryl polyglycol ether To prepare an appropriate active ingredient preparation, 1 part by weight of active ingredient is mixed with the stated amounts of solvent and emulsifier, and the concentrate is diluted with emulsifier-containing water to the desired concentration. Discs of Chinese cabbage (Brassica pekinensis) are sprayed with an active ingredient preparation of the desired concentration and, after drying, populated with larvae of the mustard beetle (Phaedon cochleariae). After 7 days, the efficacy in % is determined. 100% means that all beetle larvae have been killed; 0% means that none of the beetle larvae have been killed.

Compound	pest or weed control at 500 g/ha
CCOc1nccnc1-n1nc(C(F)(F)F)c(-c2ccc(Br)cc2)c1N [Ex. 5]	100%
COc1nccnc1-n1nc(C(F)(F)F)c(-c2cc(Br)cc(Br)c2)c1N [Ex. 22]	100%
COc1cc(-c2c(C(F)(F)C(F)(F)F)nn(-c3nccnc3OC)c2N)cc(Cl)c1OC [Ex. 51]	100%

System: adult engorged Boophilus microplus females of the SP-resistant Parkhurst strain
Assay: Boophilus microplus (dip)
Format: in vivo
Conditions: Rhipicephalus microplus, 168 h, after 7 days, laying of fertile eggs, read-out: efficacy
Method: Boophilus microplus (dip)
Test animals: adult engorged Boophilus microplus females of the SP-resistant Parkhurst strain
Solvent: dimethyl sulphoxide
10 mg of active ingredient are dissolved in 0.5 ml of dimethyl sulphoxide. For the purpose of preparing a suitable formulation, the active ingredient solution is diluted with water to the concentration desired in each case. This active ingredient preparation is pipetted into tubes. 8-10 ticks are transferred into a further tube with holes. The tube is immersed into the active ingredient formulation, and all ticks are completely wetted. After the liquid has run out, the ticks are transferred onto filter discs in plastic dishes and stored in a climate-controlled room. The activity is assessed after 7 days by laying of fertile eggs. Eggs whose fertility is not outwardly visible are stored in glass tubes in a climate-controlled cabinet until the larvae hatch. Efficacy of 100% means that none of the ticks has laid any fertile eggs.

Compound	pest or weed control at 100 ppm
CCOc1nccnc1-n1nc(C(F)(F)F)c(-c2ccc(Br)cc2)c1N [Ex. 5]	100%
COc1nccnc1-n1nc(C(F)(F)F)c(-c2cc(Br)cc(Br)c2)c1N [Ex. 22]	95%
COc1cc(-c2c(C(F)(F)C(F)(F)F)nn(-c3nccnc3OC)c2N)cc(Cl)c1OC [Ex. 51]	100%

System: caterpillars of the armyworm (Spodoptera frugiperda)
Assay: Spodoptera frugiperda test (SPODFR spray treatment)
Format: in vivo
Conditions: Spodoptera frugiperda, foliar, 168 h, maize leaf discs, after 7 days, read-out: efficacy
Method: Spodoptera frugiperda Test (SPODFR Spray Treatment) Solvent: 78.0 parts by weight of acetone • • 1.5 parts by weight of dimethylformamide Emulsifier: 0.5 part by weight of alkylaryl polyglycol ether To prepare an appropriate active ingredient preparation, 1 part by weight of active ingredient is mixed with the stated amounts of solvent and emulsifier, and the concentrate is diluted with emulsifier-containing water to the desired concentration. Discs of maize leaves (Zea mays) are sprayed with an active ingredient preparation of the desired concentration and, after drying, populated with caterpillars of the armyworm (Spodoptera frugiperda). After 7 days, the efficacy in % is determined. 100% means that all caterpillars have been killed; 0% means that none of the caterpillars have been killed.

Compound	pest or weed control at 500 g/ha
COc1nccnc1-n1nc(C(F)(F)F)c(-c2cc(Br)cc(Br)c2)c1N [Ex. 22]	100%
COc1cc(-c2c(C(F)(F)C(F)(F)F)nn(-c3nccnc3OC)c2N)cc(Cl)c1OC [Ex. 51]	100%

System: adult Musca domestica
Assay: Musca domestica test
Format: in vivo
Conditions: 100 ppm; after 2 days
Method: as §1, with “Musca domestica” for “Lucilia cuprina”, “Test” for “Test (LUCICU)”, “a sponge” for “horse meat”, “adult Musca domestica.” for “about 20 Lucilia cuprina larvae.”, “flies” for “larvae”

Compound	efficacy (kill)
CCOc1nccnc1-n1nc(C(F)(F)F)c(-c2ccc(Br)cc2)c1N [Ex. 5]	80%

System: Boophilus microplus
Assay: Boophilus microplus test (BOOPMI injection)
Format: in vivo
Conditions: Rhipicephalus microplus, 168 h; 20 μg animal; injection into the abdomen; after 7 days, laying of fertile eggs; read-out: efficacy
Method: Boophilus microplus Test (BOOPMI Injection) Solvent: dimethyl sulphoxide To prepare an appropriate active ingredient formulation, 10 mg of active ingredient are mixed with 0.5 ml of solvent and the concentrate is diluted with solvent to the desired concentration. The active ingredient solution is injected into the abdomen (Boophilus microplus), and the animals are transferred into dishes and stored in a climate-controlled room. The efficacy is assessed by laying of fertile eggs. After 7 days, the efficacy in % is determined. 100% means that none of the ticks has laid any fertile eggs.

Compound	pest or weed control at 0.02 mg
CCOc1nccnc1-n1nc(C(F)(F)F)c(-c2ccc(Br)cc2)c1N [Ex. 5]	100%
COc1nccnc1-n1nc(C(F)(F)F)c(-c2cc(Br)cc(Br)c2)c1N [Ex. 22]	100%
COc1cc(-c2c(C(F)(F)C(F)(F)F)nn(-c3nccnc3OC)c2N)cc(Cl)c1OC [Ex. 51]	100%
